US6713607B2 (Wyeth, priority 1994, dated 2004)
Blank lines part the entries; values can stand above or below the compound they belong to.

Legend:
[1] = tested on: mitogen-stimulated thymocyte proliferation; assay: LAF, mitogen-stimulated thymocyte proliferation assay; format: cell-based, murine
210 kDa Protein [2] = target: T1, 210 kDa Protein (Homo sapiens, UniProt P42345+P62942); assay: Affinity isolation of the 210 kDa protein from Molt 4 membrane preparations with GST-FKBP12 complexed to rapamycin or analog (binding of analog-FKBP12 complexes); conditions: isolation procedure of Example 1, Molt 4 cells
T1 construct: These proteins are isolated from membrane preparations of Molt 4 T cell leukemia; endogenous in cells; host or cells: Molt 4 cells (CHAPSO-solubilized membrane fraction); The partner GST-FKBP12 was made in house in recombinant E. coli (pGEX-FKBP)
T1 sequence (P62942 whole entry, other chains not shown): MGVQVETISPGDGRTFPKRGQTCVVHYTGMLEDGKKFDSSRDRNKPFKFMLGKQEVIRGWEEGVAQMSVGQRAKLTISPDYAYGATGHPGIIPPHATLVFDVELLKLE
Protocol: Molt 4 cells (1×10^9) were grown in standard media (RPMI 1640 containing 100 U/ml pennicillin, 100 ug/ml L-glutamine, 10% FCS). The cells were harvested and rinsed 3× with PBS (50 mM phosphate buffer, pH 7.0, 150 mM NaCl), flash frozen in dry-ice ethanol bath and stored at −80° C. On ice, the cells were thawed and lysed using a dounce homogenizer with B pestle in 5 ml of buffer A (10 mM Hepes, pH 7.5, 20 mM KCl, 1 mM EDTA, 0.4 mM PMSF and 2 mM 2-ME). After the debris was cleared by centrifugation at 1600 g for 10 min. and the membrane fraction was concentrated by 100,000 g centrifugation (1 hour), the 100,000 g pellet was incubated in 3 ml buffer B (50 mM Tris, pH 7.2, 100 mM NaCl, 20 mM KCl, 0.2 mM PMSF, 1 mM 2-ME, 2 mM CaCl2, 2 mM MgCl2, 5 μg/ml aprotinin, leupeptin, pepstatin A and antipain), containing 12 mM CHAPSO for two hours at 4° C. The solubilized membrane proteins were separated from the debris by a 100,000 g centrifugation. […] The supernatant was then incubated for 2 hours at 4° C. with 100 ul glutathione resin (1:1 Buffer B). Nonspecific proteins were rinsed 5× with buffer C (buffer B+0.1% Triton×100) and the proteins eluted from the resin in Laemli buffer by incubation at 95° C. for 3 minutes and microcentrifugation. The proteins were separated by size using a 7% SDS-PAGE followed by silver stain.

FKBP12 = FKBP12 (Homo sapiens, UniProt P62942); assay: Inhibition of PPIase activity of FKBP12; format: biochemical; conditions: read-out: PPlase(Ki)
Sequence of FKBP12 (P62942 whole entry, species assumed): as the sequence (P62942 whole entry, other chains not shown) above

210 kDa Protein [3] = target: 210 kDa Protein (Homo sapiens, UniProt P42345); assay: Modified isolation procedure: no exogenous FKBP, streptavidin-conjugated resin in place of glutathione resin; format: binding

Compound: C=CC[C@@H]1/C=C(\C)C[C@H](C)C[C@H](OC)[C@H]2O[C@@](O)(C(=O)C(=O)N3CCCC[C@H]3C(=O)O[C@H](/C(C)=C/[C@@H]3CC[C@@H](O)[C@H](OC)C3)[C@H](C)[C@@H](O)CC1=O)[C@H](C)C[C@@H]2OC [FK506]
- IC50 ([1]; Mus musculus, Thymocyte): 3 nM

Compound: CO[C@H]1C[C@@H]2CC[C@@H](C)[C@@](O)(O2)C(=O)C(=O)N2CCCC[C@H]2C(=O)O[C@H]([C@H](C)C[C@@H]2CC[C@@H](O)[C@H](OC)C2)CC(=O)[C@H](C)/C=C(\C)[C@@H](O)[C@@H](OC)C(=O)[C@H](C)C[C@H](C)/C=C/C=C/C=C/1C [RAPA, Rapamycin]
- IC50 ([1]; Mus musculus, Thymocyte): 6 nM

- 210 kDa protein isolated with compound:GST-FKBP12 complex (in words) (210 kDa Protein [2]): same proteins were isolated
- Ki (FKBP12): 4.4 nM
Compound: COC1CC2CCC(C)C(O)(O2)C(=O)C(=O)N2CCCCC2C(=O)OC(C(C)CC2CCC(O)C(OC)C2)CC(=O)C(C)/C=C(\C)C(O)CC(=O)C(C)CC(C)/C=C/C=C/C=C/1C (stereo not shown) [demethoxyrapamycin]
- IC50 ([1]; mitogen-stimulated thymocyte proliferation, FK506: mechanism of action is different): 58 nM

Compound: COC1CC2CCC(C)C(O)(O2)C(=O)C(=O)N2CCCCC2C(=O)OC(C(C)CC2CCC(OC(=O)CNC(=O)CCCCC3SCC4NC(=O)NC43)C(OC)C2)CC(=O)C(C)C=C(C)C(O)C(OC)C(=O)C(C)CC(C)C=CC=CC=C1C (stereo not shown) [rapamycin-42-biotin glycinate ester]
- immunosuppressive activity in the LAF assay (in words) [1]: equivalent immunosuppressive activity
- 210 kDa protein isolated by modified procedure (in words) (210 kDa Protein [3]): Only background levels
